# Assay results published in patent publication US11021481B2, “Substituted isoindolin-1-ones and 2,3-dihydro-1h-pyrrolo[3,4-c]pyridin-1-ones as HPK1 antagonists” (Nimbus Saturn, Inc., priority 2019, dated 2021).
# Molecular target: HPK1 (Homo sapiens (Human), UniProt Q92918)
# Test: HPK1 biochemical enzyme assay (microfluidic mobility shift assay)
# Conditions: 1.5 nM HPK1, ATP 1 mM final, 30 min preincubation, 60 min at RT, Caliper EZ Reader; read-out: HPK1 1000UMATP caliper IC50
# How it was run: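 Mobility shift readout of HPK1 activity after a 60 min RT reaction with 1 mM ATP, 1 μM substrate and 5 mM MgCl2. Enzyme/substrate mix was first exposed to compounds for 30 min, using ten-point curves topping at 3 μM final.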
# Chain of HPK1 (Q92918 whole entry): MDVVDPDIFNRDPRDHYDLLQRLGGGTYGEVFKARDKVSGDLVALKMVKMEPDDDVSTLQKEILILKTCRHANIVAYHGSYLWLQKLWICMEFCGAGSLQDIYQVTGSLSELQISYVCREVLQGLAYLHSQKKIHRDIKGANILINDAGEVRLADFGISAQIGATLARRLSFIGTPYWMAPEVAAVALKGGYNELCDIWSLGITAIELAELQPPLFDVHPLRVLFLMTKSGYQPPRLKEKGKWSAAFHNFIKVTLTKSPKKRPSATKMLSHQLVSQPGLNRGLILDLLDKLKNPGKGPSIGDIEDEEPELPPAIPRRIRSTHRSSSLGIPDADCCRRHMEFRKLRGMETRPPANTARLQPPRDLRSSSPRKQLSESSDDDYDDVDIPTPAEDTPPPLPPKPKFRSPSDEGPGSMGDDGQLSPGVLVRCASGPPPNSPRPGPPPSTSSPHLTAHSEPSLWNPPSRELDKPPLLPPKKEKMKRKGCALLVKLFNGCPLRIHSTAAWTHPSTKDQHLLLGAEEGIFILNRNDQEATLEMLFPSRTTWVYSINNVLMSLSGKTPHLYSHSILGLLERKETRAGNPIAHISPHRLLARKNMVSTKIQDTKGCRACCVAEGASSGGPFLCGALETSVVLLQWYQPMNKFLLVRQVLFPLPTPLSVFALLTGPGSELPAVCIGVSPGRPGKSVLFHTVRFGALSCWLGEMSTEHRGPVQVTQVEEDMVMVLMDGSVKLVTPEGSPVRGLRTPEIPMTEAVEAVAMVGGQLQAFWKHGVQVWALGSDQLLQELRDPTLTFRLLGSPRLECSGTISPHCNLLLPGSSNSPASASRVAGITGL
row,Structure (SMILES),IC50
1,Cc1ccn2c(-c3ncc(Nc4ccc(N5CCOCC5)cn4)c4c3CNC4=O)cnc2c1 [I-163],100 to 1000 nM
2,"COc1ccn2c(-c3ccc(Nc4ccc(N5CCC(O)CC5)cn4)c4c3CNC4=O)cnc2c1 [I-164, 7-[[5-(4-hydroxy-1-piperidyl)-2-pyridyl]amino]-4-(7-methoxylmidazo[1,2-a]pyridin-3-yl)isoindolin-1-one]",< 100 nM
3,"Cc1cnn2c(-c3ccc(Nc4ccc(N5CCC(O)CC5)cn4)c4c3CNC4=O)ccnc12 [I-165, 7-[[5-(4-hydroxy-1-piperidxl)-2-pyridyl]amino]-4-(3-methylpyra-zolo[1,5-a]pyrimidin-7-yl)isoindolin-1-one]",> 1000 nM
4,"COc1cccn2c(-c3ccc(Nc4ccc(N5CCC(O)CC5)cn4)c4c3CNC4=O)cnc12 [I-166, 7-[[5-(4-hydroxy-1-piperidyl)-2-pyridyl]amino]-4-(8-methoxy-imidazo[1,2-a]pyridin-3-yl)isoindolin-1-one]",< 100 nM
5,"O=C1NCc2c(-c3cnc4cc(F)ccn34)ncc(Nc3ccc(N4CCC(O)CC4)cn3)c21 [I-167, 4-(7-fluoroimidazo [1,2-a]pyridin-3-yl)-7-[[5-(4-hydroxy-1-piperidyl)-2-pyridyl]amino]-2,3-dihydropyrrolo [3,4-c]pyridin-1-one]",< 100 nM
6,"Cn1ccn2c(-c3ccc(Nc4ccc(N5CCC(O)CC5)cn4)c4c3CNC4=O)cnc2c1=O [I-168, 3-[7-[[5-(4-hydroxy-1-piperidyl)-2-pyridyl]amino]-1-oxo-isoindolin-4-yl]-7-methyl-imidazo[1,2-a]pyrazin-8-one]",< 100 nM
7,"O=C1NCc2c(-c3cnc4cnccn34)ccc(Nc3ccc(N4CCC[C@H](O)C4)cn3)c21 [I-169, 7-[[5-[(3S)-3-hydroxy-1-piperipyl]-2-pyridyl]amino]-4-imidazol[1,2-a]pyrazin-3-yl-isoindolin-1-one]",< 100 nM
8,"Cc1ccn2c(-c3ccc(Nc4ccc(N5CCC[C@H](O)C5)cn4)c4c3CNC4=O)cnc2c1 [I-170, 7-[[5-[(3S)-3-hydroxy-1-piperidyl]-2-pyridyl]amino]-4-(7-methylimidazo [1,2-a]pyridin-3-yl)isoindolin-1-one]",< 100 nM
9,O=C1NCc2c(-c3cnc4cnccn34)ccc(Nc3ccc(N4CCC[C@@H](O)C4)cn3)c21 [I-171],< 100 nM
10,"Cc1ccn2c(-c3ccc(Nc4ccc(N5CCC[C@@H](O)C5)cn4)c4c3CNC4=O)cnc2c1 [I-172, 7-[[5-[(3R)-3-hydroxy-1-piperipyl]-2-pyridyl]amino]-4-(7-methylimidazo [1,2-a]pyridin-3-yl)isoindolin-1-one]",< 100 nM
11,"Cn1cnc2c(-c3ccc(Nc4ccc(N5CCC(O)CC5)cn4)c4c3CNC4=O)cccc21 [I-173, 7-[[5-(4-hydroxy-1-piperidyl)-2-pyridyl]amino]-4-(1-methylbenz-imidazol-4-yl)isoindolin-1-one]",< 100 nM
12,"O=C1NCc2c(-c3cnc4cc(F)ccn34)ccc(Nc3ccc(N4CCC[C@@H](O)C4)cn3)c21 [I-174, 4-(7-fluoroimidazo [1,2-a]pyridin-3-yl)-7-[[5-[(3R)-3-hydroxy-1-piperipyl]-2-pyripyl]amino] isoindolin-1-one]",< 100 nM
13,"O=C1NCc2c(-c3cnc4cc(F)ccn34)ccc(Nc3ccc(N4CCC[C@H](O)C4)cn3)c21 [I-175, 4-(7-fluoroimidazo [1,2-a]pyridin-3-yl)-7-[[5-[(3S)-3-hydroxy-1-piperidyl]-2-pyridyl]amino] isoindolin-1-one]",< 100 nM
14,"Cc1ccn2c(-c3ccc(Nc4ccc(N5CCC(O)CC5)cn4)c4c3CNC4=O)cnc2c1C [I-176, 4-(7,8-dimethylimi-dazo[1,2-a]pyridin-3-yl)-7-[[5-(4-hydroxy-1-piperidyl)-2-pyridyl]amino] isoindolin-1-one]",< 100 nM
15,"Cn1ccc2c(-c3ncc(Nc4ccc(N5CCC[C@@H](O)C5)cn4)c4c3CNC4=O)ccnc21 [I-178, 7-[[5-[(3R)-3-hydroxy-1-piperidyl]-2-pyridyl]amino]-4-(1-methylpyrrolo [2,3-b]pyridin-4-yl)-2,3-dihydropyrrolo [3,4-c]pyridin-1-one]",< 100 nM
16,"Cn1ccc2c(-c3ncc(Nc4ccc(N5CCC[C@H](O)C5)cn4)c4c3CNC4=O)ccnc21 [I-179, 7-[[5-[(3S)-3-hydroxy-1-piperidyl]-2-pyridyl]amino]-4-(1-methylpyrrolo [2,3-b]pyridin-4-yl)-2,3-dihydropyrrolo [3,4-c]pyridin-1-one]",< 100 nM

# Now from value to compound:
row,IC50,Structure (SMILES)
1,< 100 nM,"Cn1cnc2c(-c3ccc(Nc4ccc(N5CCC(O)CC5)cn4)c4c3CNC4=O)ccnc21 [I-152, 7-[[5-(4-hydroxy-1-piperidyl)-2-pyridyl]amino]-4-(3-methylimidazo [4,5-b]pyridin-7-yl)isoindolin-1-one]"
2,< 100 nM,"O=C1NCc2c(-c3cnc4cnccn34)ccc(Nc3ccc(N4CCOCC4)cn3)c21 [I-153, 4-imidazo[1,2-a]pyrazin-3-yl-7-[(5-morpholino-2-pyridyl)amino] isoindolin-1-one]"
3,< 100 nM,"Cc1ccn2c(-c3ncc(Nc4ccc(N5CCC(O)CC5)cn4)c4c3CNC4=O)cnc2c1 [I-154, 7-[[5-(4-hydroxy-1-piperidyl)-2-pyridyl]amino]-4-(7-methylimidazo [1,2-a]pyridin-3-yl)-2,3-dihydropyrrolo [3,4-c]pyridin-1-one]"
4,< 100 nM,Cc1ccn2c(-c3ccc(Nc4ccc(C5CCOC5)cn4)c4c3CNC4=O)cnc2c1 (stereo not drawn) [I-155]
5,< 100 nM,"O=C1NCc2c(-c3cnc4c(F)cccn34)ccc(Nc3ccc(N4CCOCC4)cn3)c21 [I-156, 4-(8-fluoroimidazo [1,2-a]pyridin-3-yl)-7-[(5-morpholino-2-pyridyl)amino] isoindolin-1-one]"
6,< 100 nM,"O=C1NCc2c(-c3cnn4cccnc34)ccc(Nc3ccc(N4CCC(O)CC4)cn3)c21 [I-157, 7-[[5-(4-hydroxy-1-piperidyl)-2-pyridyl]amino]-4-pyrazolo[1,5-a]pyrimidin-3-yl-isoindolin-1-one]"
7,< 100 nM,"Cc1nccn2c(-c3ccc(Nc4ccc(N5CCC(O)CC5)cn4)c4c3CNC4=O)cnc12 [I-158, 7-[[5-(4-hydroxy-1-piperidyl)-2-pyridyl]amino]-4-(8-methylimidazo [1,2-a]pyrazin-3-yl)isoindolin-1-one]"
8,< 100 nM,"O=C1NCc2c(-c3cnc4cc(F)ccn34)ccc(Nc3ccc(N4CCOCC4)cn3)c21 [I-159, 4-(7-fluoroimidazo [1,2-a]pyridin-3-yl)-7-[(5-morpholino-2-pyridyl)amino] isoindolin-1-one]"
9,< 100 nM,"O=C1NCc2c(-c3cnc4ccccn34)ncc(Nc3ccc(N4CCC(O)CC4)cn3)c21 [I-160, 7-[[5-(4-hydroxy-1-piperidyl)-2-pyridyl]amino]-4-imidazo[1,2-a]pyridin-3-yl-2,3-dihydropyrrolo [3,4-c]pyridin-1-one]"
10,< 100 nM,"Cn1ccc2c(-c3ccc(Nc4ccc(N5CCC(O)CC5)cn4)c4c3CNC4=O)cccc21 [I-161, 7-[[5-(4-hydroxy-1-piperidyl)-2-pyridyl]amino]-4-(1-methylindol-4-yl)isoindolin-1-one]"
11,< 100 nM,"O=C1NCc2c(-c3cnc4cccnn34)ccc(Nc3ccc(N4CCC(O)CC4)cn3)c21 [I-162, 7-[[5-(4-hydroxy-1-piperidyl)-2-pyridyl]amino]-4-imidazo[1,2-b]pyridazin-3-yl-isoindolin-1-one]"
